Data reported in PubChem BioAssay (NCI).
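Method: 48-hour compound exposure of cells in 96-well plates, five concentrations, linear interpolation of endpoints. GI50 = concentration required for 50% inhibition of growth. At the TGI there is no net growth.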

Key:
Assay in all cases: NCI anticancer screen, dose series, 48 h
HCC-2998 colon = tested on: HCC-2998 colon
UACC-257 melanoma = tested on: UACC-257 melanoma
NCI-H23 lung = tested on: NCI-H23 lung
786-0 renal = tested on: 786-0 renal
CAKI-1 renal = tested on: CAKI-1 renal
SW-620 colon = tested on: SW-620 colon
BT-549 breast = tested on: BT-549 breast
SF-268 CNS = tested on: SF-268 CNS
MDA-MB-435 = tested on: MDA-MB-435
HL-60(TB) leukemia = tested on: HL-60(TB) leukemia

| SMILES | GI50 (HCC-2998 colon) [µM] | TGI (HCC-2998 colon) [µM] | GI50 (UACC-257 melanoma) [µM] | TGI (UACC-257 melanoma) [µM] | GI50 (NCI-H23 lung) [µM] | TGI (NCI-H23 lung) [µM] | GI50 (786-0 renal) [µM] | TGI (786-0 renal) [µM] | GI50 (CAKI-1 renal) [µM] | TGI (CAKI-1 renal) [µM] | GI50 (SW-620 colon) [µM] | TGI (SW-620 colon) [µM] | GI50 (BT-549 breast) [µM] | TGI (BT-549 breast) [µM] | GI50 (SF-268 CNS) [µM] | TGI (SF-268 CNS) [µM] | GI50 (MDA-MB-435) [µM] | TGI (MDA-MB-435) [µM] | GI50 (HL-60(TB) leukemia) [µM] | TGI (HL-60(TB) leukemia) [µM] |
| --- | --- | --- | --- | --- | --- | --- | --- | --- | --- | --- | --- | --- | --- | --- | --- | --- | --- | --- | --- | --- |
| COc1ccc2c(Nc3ccc(NS(C)(=O)=O)cc3)c3ccccc3nc2c1 | 0.732 | 2.3 | 0.628 | 2.17 | 0.475 | 2.49 | 0.544 | 4.24 | 0.45 | 5.64 | 0.276 | 3.29 | 1.5 | 3.67 | 0.469 | 4.03 | 0.817 | 2.4 | 0.427 | 4.45 |
| O=C1CSC(/C(=C\c2ccc(Cl)cc2)c2nc3ccccc3[nH]2)=N1 | – | 17.7 | – | 34.7 | – | 30.7 | – | 26.4 | – | 21.5 | – | 35.6 | – | 36.6 | – | 23 | – | 32.6 | – | > 68.8 |
| COC1CC2C=C(C)/C=C/C=C/C(=O)NC(c3ccccc3)C/C=C/CCC(O)CC(=O)C2=C1O (stereo not drawn) | 0.558 | 1.94 | 0.186 | 0.577 | 0.24 | 1.11 | 0.434 | 1.66 | 0.314 | 1.01 | 0.31 | 1.36 | 0.261 | 1.17 | 0.365 | 1.51 | 0.313 | 1.29 | 0.153 | 0.406 |
| COC(=O)c1c2c(c(C)[n+]([O-])c1C)C(=O)C=C(NCc1ccc(F)c(F)c1)C2=O | 0.359 | 1.43 | 0.225 | 0.657 | 0.498 | 2.59 | 1.35 | 3.58 | 0.313 | 2.13 | 0.254 | 1.36 | 1.12 | 2.42 | 1.07 | 3.32 | 0.131 | 0.27 | 0.302 | 1.02 |
| CCN1C(=S)N(CC)C2C1NC(=S)N2/N=C/C=C/c1ccccc1 (stereo not drawn) | 2.84 | 16.9 | 3.68 | 19.5 | 4.49 | 22 | 5.19 | 19.2 | 0.776 | 18.6 | 0.803 | 17.8 | 5.44 | 21.7 | 5.51 | 27.2 | 0.272 | 0.856 | 0.387 | 1.79 |
| Cc1cc(C)c(C[N+](C)(C)C)c(C)c1C | 0.521 | 12.4 | 0.465 | 6.69 | 0.395 | 12.3 | 0.323 | 13.2 | 0.281 | > 26 | 0.32 | > 100 | 0.619 | 7.36 | 0.364 | 10 | 0.328 | 12.5 | 0.496 | > 24.7 |
| O=c1nc(Nc2cccc(Cl)c2)oc2cc(Cl)oc(=O)c12 | 13.4 | 27.5 | 10.3 | 23.9 | 7.15 | 23.7 | 20.2 | 66.4 | 5.93 | 21.5 | 10.9 | 29.9 | 22.5 | 95.7 | 3.69 | 14.2 | 5.34 | 20.8 | 10.8 | 55.2 |
| C=C1C(=O)OC2CC1C(O)C/C(C)=C/CC/C(C)=C/C(O)CC2C (stereo not drawn) | – | 4.21 | – | 10.3 | – | 7.8 | – | 3.99 | – | 8.39 | – | 5.62 | – | 6.45 | – | 8.66 | – | 13.4 | – | 1.32 |
| OCC1OC(n2ccc3c(NO)ncnc32)C(O)C1O (stereo not drawn) | 0.25 | 1 | 0.232 | 0.866 | 0.214 | 1.17 | 0.239 | 1.1 | 0.0472 | 0.403 | 0.0895 | 3.23 | 0.193 | 0.764 | 0.233 | 2.81 | 0.198 | 0.632 | 0.214 | 0.638 |
| C1CSCCCSCCSCCCSC1 | – | > 100 | – | > 100 | – | > 100 | – | > 100 | – | > 100 | – | > 100 | – | > 100 | – | > 100 | – | > 100 | – | – |
| C#CC1(O)C(COP(=O)(O)OC2CC(n3cc(F)c(=O)[nH]c3=O)OC2CO)OC(n2ccc(N)nc2=O)C1O (stereo not drawn) | < 0.01 | 0.431 | 0.0663 | 2.18 | < 0.026 | > 38 | < 0.0117 | > 100 | < 0.01 | 0.0813 | < 0.01 | > 100 | < 0.0157 | 0.909 | < 0.01 | 13.5 | < 0.0176 | 0.545 | < 0.0181 | – |
| CC(C)c1ccc(C(=O)Nc2sc3c(c2C#N)CCC(=O)C3)cc1 | 1.94 | > 37.4 | 1.73 | 6.05 | 0.32 | 9.57 | 0.67 | > 21.8 | 0.343 | 1.95 | 0.266 | 1.67 | 0.306 | 3.13 | 0.432 | > 75 | 1.02 | 5.72 | 0.413 | – |
| Nc1ccc2c(c1)NCCN2 | – | > 100 | – | > 100 | – | > 100 | – | > 100 | – | > 100 | – | – | – | > 100 | – | > 100 | – | > 100 | – | 89.4 |
| NNc1cccc(/C=C/c2ccccc2)cc1=O | 16.8 | > 100 | 26.7 | > 100 | – | – | 19.9 | > 100 | 2.6 | 8.17 | 5.86 | > 100 | 33.5 | > 100 | 4.27 | > 100 | 4.31 | 50.1 | 3.97 | > 100 |
| Cn1ncc2c(N)nc(N3CCCCC3)nc21 | 18.6 | 58.6 | 54.4 | > 100 | 28.4 | > 100 | 69.3 | > 100 | 29 | > 100 | 31 | > 100 | 31.9 | > 100 | 29.6 | 69.2 | 24.1 | 81.4 | 36 | > 100 |
| CCOC(=O)c1[nH]c(-c2ccc(Cl)cc2)cc1-c1cccnc1 | 9.46 | > 100 | > 100 | > 100 | 2.33 | > 100 | 0.44 | 8.58 | – | – | 2.87 | > 100 | 0.27 | 1.46 | 2.36 | > 100 | 0.279 | 1.42 | – | – |
| COCCOC(=O)NC(=O)Nc1ccc(/C(=N/O)c2ccc(Cl)cc2)cc1 | 0.2 | 7.04 | 13 | 48.9 | 0.221 | 51.4 | 0.249 | 25.7 | – | > 100 | 0.109 | > 100 | 0.58 | 39.6 | 0.209 | > 100 | 0.092 | 0.374 | 0.0783 | 0.137 |
| CCOC(=O)C(CO)c1nc2c([nH]c1=O)c(=O)n(C)c(=O)n2C (stereo not drawn) | – | > 100 | – | > 100 | – | > 100 | – | > 100 | – | > 100 | – | > 100 | – | > 100 | – | > 100 | – | > 100 | – | > 100 |
| CC(C)(C)NCc1cc(C(C)(C)C)cc(-c2ccc(Cl)cc2)c1O | – | 29.6 | – | 50.3 | – | 29.4 | – | 26.8 | – | 25.6 | – | – | – | 27.9 | – | 30.8 | – | 25.2 | – | 23.4 |
| NC1CCN(c2nc(Nc3cccc(C(F)(F)F)c3)c3c(=O)[nH]ccc3n2)CC1 | 1.6 | 3 | 2.06 | 3.98 | 1.58 | 3.11 | 1.24 | 2.55 | 0.444 | 1.88 | 1.19 | 2.67 | 1.59 | 3 | – | – | 1.09 | 2.42 | 0.603 | 2.41 |
| O=[N+]([O-])c1ccc(N/N=C/c2c(O)ccc3ccccc23)nc1 | 28.8 | > 100 | 8.75 | > 100 | > 100 | > 100 | 13.3 | > 100 | 0.518 | > 100 | 3.61 | > 100 | 39.8 | > 100 | 4 | > 100 | 55.2 | > 100 | – | – |
| CN(C)N1C(=O)c2ccccc2NC1c1ccccc1 (stereo not drawn) | – | > 100 | – | > 100 | – | > 100 | – | > 100 | – | > 100 | – | > 100 | – | > 100 | – | > 100 | – | > 100 | – | – |
